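Cultured in 96-well plates, cells were exposed to test compound for 48 hours across five concentrations. Here, GI50 denotes the concentration required for 50% inhibition of growth. TGI denotes the concentration required for complete inhibition of growth.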
Legend:
Test in all cases: NCI tumour cell line growth inhibition, 48 h
[1] = test system: NCI-H522 lung
[2] = test system: MOLT-4 leukemia
[3] = test system: HS 578T breast
[4] = test system: PC-3 prostate
[5] = test system: U251 CNS
[6] = test system: NCI-H226 lung
[7] = test system: BT-549 breast
[8] = test system: KM12 colon
[9] = test system: SNB-75 CNS
[10] = test system: 786-0 renal

SMILES	GI50 [1]	TGI [1]	GI50 [2]	TGI [2]	GI50 [3]	TGI [3]	GI50 [4]	TGI [4]	GI50 [5]	TGI [5]	GI50 [6]	TGI [6]	GI50 [7]	TGI [7]	GI50 [8]	TGI [8]	GI50 [9]	TGI [9]	GI50 [10]	TGI [10]
COc1cc(-c2c(C#N)c(N)nc(N3CCOCC3)c2C#N)cc(OC)c1OC	> 100 µM	> 100 µM	> 100 µM	> 100 µM	94 µM	> 100 µM	> 100 µM	> 100 µM	> 100 µM	> 100 µM	> 100 µM	> 100 µM	> 100 µM	> 100 µM	> 100 µM	> 100 µM	1.64 µM	54.4 µM	> 100 µM	> 100 µM
COc1ccc(-n2ccnc2-c2cc(OC)c(OC)c(OC)c2)cc1	2.92 µM	8.12 µM	5.75 µM	> 100 µM	2.08 µM	8.29 µM	3.3 µM	> 100 µM	3.98 µM	> 100 µM	24 µM	> 100 µM	5.03 µM	> 100 µM	4.59 µM	> 100 µM	2.19 µM	6.31 µM	5.65 µM	> 100 µM
COc1ccc(C2=NN(C(=O)c3cc(OC)c(OC)c(OC)c3)C(c3ccc(N(C)C)cc3)C2)cc1 (centres undefined)	0.352 µM	–	3.87 µM	> 100 µM	0.266 µM	1.56 µM	0.529 µM	> 100 µM	0.473 µM	> 100 µM	1.28 µM	> 100 µM	1.58 µM	> 100 µM	0.46 µM	> 100 µM	0.346 µM	8.72 µM	0.295 µM	–
CCCCCCCCCCCCCCCCC(=O)O.CCCCCCCCCCCCCCCCCC(=O)O.CCCCCCCCCCCCCCCCCC(=O)O.CCCCCCCCCCCCCCCCCC(=O)O.CCCCCCCCCCCCCCCCCC(=O)O.CO[CH-]OC12COC1CC(O)C1(C)C(O)C(OC(C)O)C3=C(C)C(OC(=O)C(O)C([NH-])c4ccccc4)CC(O)(C(OC(=O)c4ccccc4)C21)C3(C)C.[Cu+].[Zn].[Zn].[Zn].[Zn].[Zn] (centres undefined)	0.0103 µM	6.07 µM	0.0104 µM	> 18.5 µM	0.00335 µM	0.0297 µM	0.00998 µM	5.63 µM	0.00851 µM	4.09 µM	0.277 µM	8.05 µM	0.00947 µM	3.95 µM	0.00656 µM	> 25 µM	< 0.0025 µM	0.0211 µM	0.0595 µM	> 10.9 µM
CCN(CC)Cc1c(/C=C\c2cc(OC)c(OC)c(OC)c2)ccc(OC)c1O	–	6.22 µM	–	> 100 µM	–	6.22 µM	–	> 41.5 µM	–	17.2 µM	–	27.3 µM	–	> 82.2 µM	–	27.1 µM	–	9.49 µM	–	78.9 µM
O=C(Nc1ccccc1)c1cc(S(=O)(=O)Nc2nc3ccccc3o2)c(SCc2ccccc2)cc1Cl	25.2 µM	65 µM	13.3 µM	37.8 µM	14.5 µM	44.3 µM	21.7 µM	46.7 µM	17.8 µM	35 µM	21.5 µM	50.7 µM	19 µM	40.6 µM	16.7 µM	32.6 µM	25.3 µM	66.9 µM	17.3 µM	38.2 µM
O=C(c1ccco1)c1c(C(F)(F)F)n([O-])c2ccc(Cl)cc2[n+]1=O	1.4 µM	–	0.0335 µM	0.539 µM	1.49 µM	4.37 µM	0.294 µM	1.07 µM	0.487 µM	1.66 µM	1.43 µM	3.24 µM	0.109 µM	0.73 µM	1.93 µM	4.13 µM	1.9 µM	5.18 µM	0.043 µM	0.115 µM
C[C@@H](Oc1ccc(C(=O)NS(=O)(=O)C(C)(C)C)cc1C(F)(F)F)c1ccc(Oc2ccccc2)cn1	1.3 µM	5.63 µM	3.65 µM	24.9 µM	3.27 µM	17.9 µM	3.1 µM	16.1 µM	3.18 µM	13.6 µM	2.76 µM	8.5 µM	2.06 µM	5.83 µM	2.28 µM	11.4 µM	2.04 µM	10.8 µM	3.01 µM	13 µM
COc1cc(C(=O)N/N=C/c2ccc(N(C)C)cc2)cc(OC)c1OC	0.161 µM	0.937 µM	0.729 µM	19.4 µM	0.546 µM	> 100 µM	0.422 µM	> 100 µM	0.436 µM	> 100 µM	4.68 µM	> 100 µM	0.696 µM	> 26.7 µM	0.428 µM	26.4 µM	0.152 µM	> 100 µM	0.66 µM	> 100 µM
OCc1ccc(N2CCc3ccccc3C2)cc1Cl	17.2 µM	61.1 µM	27.2 µM	> 78.7 µM	32.6 µM	> 89.8 µM	17.2 µM	> 62.3 µM	< 0.0292 µM	> 44.5 µM	0.0134 µM	0.0768 µM	17.7 µM	40.8 µM	13.6 µM	40.1 µM	15.9 µM	57.7 µM	16.6 µM	51.7 µM
CN(Cc1cc(Cl)cc(Cl)c1O)Cc1c(O)ccc2ccccc12	–	29.6 µM	–	58.3 µM	–	44.4 µM	–	30.7 µM	–	30.4 µM	–	37.7 µM	–	32 µM	–	42.8 µM	–	33.3 µM	–	48.4 µM
COc1cc(-c2cc(-c3cc(OC)c(OC)c(OC)c3)nc3nc(N)[nH]c(=O)c23)ccc1Oc1ccnc2cc(Cl)ccc12	2.13 µM	15.5 µM	2.78 µM	> 100 µM	3.1 µM	> 100 µM	3.18 µM	> 100 µM	2.46 µM	7.32 µM	13.4 µM	35.9 µM	2.91 µM	20.8 µM	0.548 µM	14.9 µM	1.9 µM	> 100 µM	3.86 µM	> 100 µM
COc1ccc(C2C=C(c3ccc4c(c3)OCO4)Oc3c2c(=O)oc2ccccc32)cc1OC (centres undefined)	–	> 66.3 µM	–	> 100 µM	–	> 100 µM	–	> 100 µM	–	> 100 µM	–	9.6 µM	–	> 100 µM	–	> 100 µM	–	34.2 µM	–	> 100 µM
O=S(=O)(/N=c1/scc(-c2ccccc2)n1-c1ccccc1)c1ccc(N2N=C3c4ccccc4CC3C2c2cccs2)cc1 (centres undefined)	61.9 µM	> 100 µM	19 µM	63.7 µM	60.6 µM	> 100 µM	75 µM	> 100 µM	31.2 µM	> 100 µM	78.9 µM	> 100 µM	47.5 µM	> 100 µM	32.1 µM	> 100 µM	> 100 µM	> 100 µM	64.2 µM	> 100 µM
CN(C)c1ccc(/C=C/C2=[N+](C)c3ccccc3C2(C)C)cc1	0.587 µM	10.1 µM	0.305 µM	2.24 µM	4.15 µM	> 100 µM	0.235 µM	13.8 µM	0.353 µM	12.6 µM	1.57 µM	26.1 µM	0.467 µM	12.6 µM	0.328 µM	5.85 µM	2.47 µM	20.6 µM	2.06 µM	18.9 µM
CC(=O)OC12COC1CC(O)C1(C)C(=O)C(O)C3=C(C)C(O)CC(O)(C(OC(=O)c4ccccc4)C21)C3(C)C (centres undefined)	–	11.2 µM	–	> 100 µM	1.36 µM	6.15 µM	–	> 28.5 µM	–	> 74.3 µM	–	> 100 µM	–	> 100 µM	1.22 µM	> 100 µM	–	> 29.9 µM	–	> 100 µM
CCN(CC)C1CCC(Nc2c(C(C)=O)cnc3ccc(-c4ccc(O)c(Cl)c4)cc23)CC1 (centres undefined)	0.331 µM	1.71 µM	0.253 µM	1.18 µM	0.157 µM	2.81 µM	0.494 µM	> 44.5 µM	1.16 µM	17 µM	2.16 µM	22.6 µM	1.91 µM	5.89 µM	0.432 µM	4.28 µM	0.152 µM	5.33 µM	1.64 µM	44.8 µM
Cn1c(=O)c(Oc2ccc(F)cc2F)cc2cnc(NC3CCS(=O)(=O)CC3)nc21	> 14.3 µM	> 25 µM	> 25 µM	> 25 µM	> 25 µM	> 25 µM	> 25 µM	> 25 µM	> 25 µM	> 25 µM	> 25 µM	> 25 µM	> 25 µM	> 25 µM	> 25 µM	> 25 µM	> 14.2 µM	> 25 µM	> 25 µM	> 25 µM

Source: PubChem BioAssay (NCI)
